Measured values taken from EP4603477A1, “INHIBITORS OF THE CORONAVIRUS ACCESSORY PROTEIN ORF9B” (Consejo Superior De Investigaciones Científicas, priority 2024, dated 2025).

Tested on: THP-1 cells stably integrating and constitutively expressing ORF9b
Test: Cytokine quantification (Procartaplex multiplex) in THP-1 cells expressing ORF9b
Assay type: cell-based
Conditions: 1 µM or 5 µM
Procedure: THP-1 cells stably integrating and constitutively expressing ORF9b were generated as described under "Biochemical and biological activity (2)". Cytokines (IL-1β, IL-18, IL-10, TNF-α) were quantified by means of Procartaplex multiplex assays (InVitrogen, ThermoFisher), following instructions by the supplier. Briefly, capture beads were incubated for 2 h with cleared cell supernatants, washed and incubated with biotinylated detection antibody mix, incubated for 30 min, washed and incubated with Streptavidin-PE for 30 min, washed and data acquired on a Luminex 200 instrument. To ascertain the effect of ORF9b homodimerization inhibitors on ORF9b-mediated cytokine secretion, THP1-1 cells with the above modifications were treated with 1 µM or 5 µM of each of the compounds (final concentrations in cell culture media), and cytokine levels determined in cell culture supernatants. All determinations were performed in triplicate, and analyzed statistically significance in differences by means of a two-tailed Student's t-test. Inhibition of ORF9b-mediated secretion of cytokines was considered significant with p values ≤ 0.05.

Row | SMILES | ORF9b-induced release of IL-1β | ORF9b-induced release of IL-10 | ORF9b-induced release of IL-18 | ORF9b-induced release of TNF-α
1 | Nc1ccc(F)c(NC(=O)c2cccc3ccccc23)c1 [Compound 2, N-(5-Amino-2-fluorophenyl)-1-naphthamide] | inhibited | inhibited | inhibited | –
2 | O=C(Cc1ccc(Cl)cc1)Nc1cc([N+](=O)[O-])ccc1F [Compound 6, 2-(4-Chlorophenyl)-N-(2-fluoro-5-nitrophenyl)acetamide] | inhibited | inhibited | inhibited | –
3 | CC(C)(O)c1coc(S(=O)(=O)NC(=O)Nc2c3c(cc4c2CCC4)CCC3)c1 [MCC950, reference compound] | abrogated | abrogated | abrogated | abrogated
4 | Nc1ccc(F)c(NC(=O)Cc2ccccc2)c1 [Compound 1] | inhibited | inhibited | inhibited | –
